Data as given in PMC12727497, “Inhibition of IRAK4 by microbial trimethylamine blunts metabolic inflammation and ameliorates glycemic control” (Nature Metabolism, 2025).

Biological target: interleukin-1 receptor-associated kinase 4 (IRAK4) (Homo sapiens, UniProt Q9NWZ3)
Test: biochemical

interleukin-1 receptor-associated kinase 4 (IRAK4), sequence (Q9NWZ3 whole entry): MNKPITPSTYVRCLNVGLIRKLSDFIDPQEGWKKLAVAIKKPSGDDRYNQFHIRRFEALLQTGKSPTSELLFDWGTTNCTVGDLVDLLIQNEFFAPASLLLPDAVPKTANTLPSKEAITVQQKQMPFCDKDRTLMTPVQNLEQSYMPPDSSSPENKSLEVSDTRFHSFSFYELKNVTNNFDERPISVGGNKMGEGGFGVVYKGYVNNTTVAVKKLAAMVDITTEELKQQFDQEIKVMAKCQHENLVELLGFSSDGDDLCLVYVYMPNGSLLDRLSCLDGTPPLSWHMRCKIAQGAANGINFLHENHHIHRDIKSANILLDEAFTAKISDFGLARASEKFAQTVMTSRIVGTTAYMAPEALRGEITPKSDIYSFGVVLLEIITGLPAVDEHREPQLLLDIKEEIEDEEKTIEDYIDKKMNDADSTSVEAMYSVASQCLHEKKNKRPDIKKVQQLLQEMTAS

CN(C)C [TMA, trimethylamine] was tested, and the Kd was 14 nM.
